pIC50: −log10 of the molar value. Active and inactive are the calls of the source.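 How the source made its calls: active means IC50 of 10 µM or lower; inactive means IC50 above 10 µM.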
system: HEK-293 Gal4-VP16 UAS luciferase reporter, luminescence; test: GAL4-VP16 reporter repression curves – cell-based, luminescence, high throughput, SRC1 series, counter-screen for SRC1 inhibitor project, dose response (AID 602236);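 further: inhibitor potency where hits lower luciferase light from Gal4-VP16 transactivation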

SMILES | IC50 | pIC50
CC[C@@]1(O)C(=O)OCc2c1cc1n(c2=O)Cc2cc3c(NC(=O)CN)cccc3nc2-1 | > 35.9 µM (inactive) | –
Cc1ccccc1C(=O)/C(C#N)=N/Nc1c(C)n(C)n(-c2ccccc2)c1=O | – | 5.25
O=C(COC(=O)c1ccc[nH]c1=O)Nc1ccc(N2CCCCC2)cc1 | > 35.9 µM (inactive) | –
O=C(O)c1ccccc1-c1c2cc(I)c(=O)c(I)c-2oc2c(I)c(O)c(I)cc12 | > 35.9 µM (inactive) | –
Cc1nc2c(-c3ccc(F)cc3)cnn2c(N)c1-c1ccccc1 | 14.5 µM (inactive) | –
C=CCc1ccccc1OCC(=O)N/N=C/c1ccc(OC(C)=O)cc1OC(C)=O | 22.8 µM (inactive) | –
COc1ccccc1NS(=O)(=O)c1cccc(NC(=O)c2cncc(Br)c2)c1 | 12 µM (inactive) | –
Cc1ccc(OCC(=O)c2cc(C)n(-c3ccccc3)c2C)c([N+](=O)[O-])n1 | 12.2 µM (inactive) | –
COc1ccc(CNc2ncc(-c3ccc(F)cc3)n2C)c2ccccc12 | > 35.9 µM (inactive) | –
CCOc1ccc(/C=C2\SC(=S)N(CCC(=O)O)C2=O)cc1 | > 35.9 µM (inactive) | –
CC1CCCCN1c1ncnc2ccccc12 (stereo not given) | 13.4 µM (inactive) | –
COc1ccc(-c2cnc(N)nc2-c2ccc(OC)cc2O)cc1 | 11.7 µM (inactive) | –
COc1cc([C@@H]2c3cc4c(cc3[C@@H](O[C@@H]3O[C@@H]5CO[C@@H](C)O[C@H]5[C@H](O)[C@H]3O)[C@H]3COC(=O)[C@H]23)OCO4)cc(OC)c1O | > 35.9 µM (inactive) | –
CCOc1cccc(/C=N/NC(=O)c2cc(C3CC3)[nH]n2)c1O | 11.2 µM (inactive) | –
O=C(N/N=C/c1cc([N+](=O)[O-])ccc1O)c1cccc(N2CCCC2=O)c1 | 18.3 µM (inactive) | –
CCOC(=O)CSc1cc(-c2ccccc2)nc2ncnn12 | > 35.9 µM (inactive) | –
NC(=O)c1cc(Sc2ccccc2)nc2ccccc12 | 11.6 µM (inactive) | –
CCc1ccc(/C=C2\SC(=S)N(CCCC(=O)NCCCN3CCOCC3)C2=O)cc1 | 12.7 µM (inactive) | –
COC(CN(C(=O)CCl)C(C(=O)NC1CCCCC1)c1ccccc1C)OC (stereo not given) | – | 5.07
Cc1ccc(C(=O)Nc2sc(C)c(-c3ccccc3)c2C(N)=O)cc1[N+](=O)[O-] | > 35.9 µM (inactive) | –
COC(=O)N(NC(=O)C(O)(CCC(C)C)CCC(C)C)c1ccccc1 | > 35.9 µM (inactive) | –
CC(C)n1c(-c2cccnc2)nc2cnccc21 | – | 5.02
CNc1cccnc1C=NNC(N)=S | 18.4 µM (inactive) | –
O=C(CCn1cnc(-c2ccccc2)c1-c1ccccc1)N/N=C/c1ccccc1O | 19.9 µM (inactive) | –
c1cc2c(cn1)cnc1cscc12 | 11.8 µM (inactive) | –

SMILES | IC50 | pIC50
COc1ccccc1N(C(=O)CCl)c1cn(C(C)=O)c2ccccc12 | – | 5.04
CN(Cc1cnc2nc(N)nc(N)c2n1)c1ccc(C(=O)N[C@@H](CCC(=O)O)C(=O)O)cc1 | > 35.9 µM (inactive) | –
O=C(c1ccncc1)N(Cc1cc2ccccc2[nH]c1=O)C1CCCCC1 | – | 5.10
CCn1ccnc1CN(C)Cc1cn[nH]c1-c1ccc(F)cc1F | 11 µM (inactive) | –
CC1CC(C)C(=NNC(N)=O)C(C(O)CC2CCC(=O)NC2=O)C1 (stereo not given) | 12.2 µM (inactive) | –
CCOc1ccc(/C=C2\SC(=S)N(CCCC(=O)NCCCN3CCOCC3)C2=O)cc1 | 21.9 µM (inactive) | –
Fc1ccc(CSc2nnc(-c3ccncc3)o2)cc1 | – | 5.11
COc1cc(/C=C2\CC(C(C)(C)C)C/C(=C\c3cc(OC)c(OC)c(OC)c3)C2=O)cc(OC)c1OC (stereo not given) | – | 5.22
c1ccc(-c2nnc(-c3ccccn3)nc2NC2CCCCC2)cc1 | > 35.9 µM (inactive) | –
CCN(c1ccccc1)S(=O)(=O)c1cc(C(=O)Nc2ccc(Br)cc2)ccc1F | – | 5.08
Cc1ccc(S(=O)(=O)Nc2c(NC3CCCCC3)c3ccccc3oc2=O)c(C)c1 | 12.8 µM (inactive) | –
O=C(CCl)N1N=C(c2ccco2)CC1c1ccco1 (stereo not given) | > 12 µM (inactive) | –
O=[N+]([O-])c1ccc2c(c1)-c1ccccc1C2=NO | > 35.9 µM (inactive) | –
Cc1c(/C(O)=C2/C(=O)C(=O)N(Cc3cccnc3)C2c2ccccn2)cnn1-c1ccccc1 (stereo not given) | > 35.9 µM (inactive) | –
COc1ccc2c(C#N)c3ccccn3c2c1 | > 35.8 µM (inactive) | –
N#Cc1cc2ccncc2c2ccccc12 | – | 5.16
CCOC(=O)c1c(NC(=O)C(C)N2CCN(C(=O)c3ccco3)CC2)sc2c1CCCC2 (stereo not given) | 11.4 µM (inactive) | –
COc1ccc(/C=C2/SC(=S)N(CCC(=O)O)C2=O)cc1 | > 35.9 µM (inactive) | –
Cc1c2ccncc2cc2c1[nH]c1ccccc12 | – | 5.19
Cc1ccc2nc(C(F)(F)F)c(C#N)c(N)c2c1 | 10.4 µM (inactive) | –
CCN(CC)CCNC(=O)c1ccc(NC(=O)C2CCN(c3ncnc4sc(C)c(C)c34)CC2)cc1 | – | 5.26
Cc1nn(C(C)(C)C)c(C)c1/C=N/OC(=O)Nc1ccc(Cl)c(Cl)c1 | 13.9 µM (inactive) | –
O=C(O)c1ccccc1C(=O)Nc1ccc(Oc2cccc3ccccc23)cc1 | > 35.9 µM (inactive) | –
CC1(C)Cc2c(ccc3ccccc23)C(=O)N1 | – | 5.08
C=CCOc1ccc(/C=C2\SC(=S)N(CCC(=O)O)C2=O)cc1 | > 35.9 µM (inactive) | –

SMILES | IC50 | pIC50
COc1ccc(NC(=O)CN(C)C(=O)C2(c3ccccc3)CCCC2)cc1 | 36.3 µM (inactive) | –
Nc1ccn([C@@H]2O[C@H](CO)[C@@H](O)C2O)c(=O)n1 (stereo not given in full) | 16.2 µM (inactive) | –
CCN(C(=O)c1cccc(S(=O)(=O)N(C)C)c1)C12CC3CC(CC(C3)C1)C2 | 15.7 µM (inactive) | –
O=C1CCC/C1=c1\s/c(=C/c2cccnc2)c(=O)n1-c1ccccc1 | 11.2 µM (inactive) | –
COc1ccc(-c2cc(=O)oc3c(C)c(O)c(CN(C)C)cc23)cc1 | 15 µM (inactive) | –
NC(=S)NN=Cc1ccc(OC(=O)COc2cc(Cl)c(Cl)cc2Cl)cn1 | > 35.9 µM (inactive) | –
CC(=O)NC(c1cc(Cl)c2cccnc2c1O)C(C)C (stereo not given) | – | 5.09
COc1ccc(-n2cnc3c(sc4nccc(N(C)C)c43)c2=O)cc1 | 14.2 µM (inactive) | –
O=C(OC(c1ccccc1)c1nccc2ccccc12)c1ccccc1 (stereo not given) | 23.9 µM (inactive) | –
CC(=O)/C(N=Nc1ccc2c(c1)OCCO2)=C(\C)O | > 35.9 µM (inactive) | –
Nc1ccc(-c2cc3ccccc3oc2=O)cc1 | > 35.8 µM (inactive) | –
Cc1ccc(C)c(NC(=O)c2ccccc2NS(=O)(=O)c2cc([N+](=O)[O-])ccc2C)c1 | – | 5.40
CC(C)(C)OC(=O)NCC(=O)Oc1cc2oc(=O)cc(-c3ccccc3)c2cc1Cl | 21.8 µM (inactive) | –
COC(=O)c1sc2cnccc2c1N | > 35.9 µM (inactive) | –
CCC(=O)c1ccc(Oc2nc3c(c(=O)n(C)c(=O)n3C)n2CC)cc1 | 12.4 µM (inactive) | –
CC1CCN(C(=O)c2scc3c2OCCO3)CC1 | 16.4 µM (inactive) | –
CN(c1ccc(C(=O)N2CCN(Cc3ccc4c(c3)OCO4)CC2)cc1)S(=O)(=O)c1ccccc1 | 13.5 µM (inactive) | –
O=C(CSc1nc(-c2cccs2)cc(C(F)(F)F)n1)Nc1cc(OCC(F)(F)C(F)F)cc([N+](=O)[O-])c1 | 21.9 µM (inactive) | –
CCc1nc(N)nc(N)c1-c1ccc(Cl)c([N+](=O)[O-])c1 | > 35.8 µM (inactive) | –
COc1ccccc1CNC(=O)C(=O)NCCC1CCCCN1S(=O)(=O)c1ccc(C)cc1 (stereo not given) | 23.1 µM (inactive) | –
COc1ccc2c(=O)cc(-c3ccncc3)oc2c1OC | > 12 µM (inactive) | –
CC(=O)N1CCN(c2ccc(Oc3ncnc4sccc34)cc2)CC1 | – | 5.02
Cc1nc2sc(C(N)=O)c(N)c2c(C)c1CC(=O)c1ccccc1 | > 35.9 µM (inactive) | –
Cc1ccc(N(Cc2cc(=O)[nH]c3ccccc23)C(=O)CCl)c(C)c1 | – | 5.18
CCN(CC(=O)Nc1ccc(NC(C)=O)cc1)C(=O)C1(c2ccc(Cl)cc2)CCC1 | > 35.9 µM (inactive) | –

SMILES | IC50 | pIC50
CCC(C)(C)n1nnnc1CN1CCC(n2c(C)nc3cc(C(F)(F)F)ccc32)CC1 | > 35.9 µM (inactive) | –
COc1ccc(Nc2ncnc3ccc(C)cc23)cc1 | – | 5.08
CCOc1ccc(-c2noc(CCC(=O)O)n2)cc1 | > 35.9 µM (inactive) | –
Cc1ccc(N=c2c([N+](=O)[O-])nn(-c3ccc4c(c3)OCCO4)n2O)cc1F | 27 µM (inactive) | –
OCCN(CCO)CC(O)COc1ccc(C23CC4CC(CC(C4)C2)C3)cc1 (stereo not given) | > 35.9 µM (inactive) | –
O=C(NC(=S)Nc1ccc(N2CCN(C(=O)c3ccccc3)CC2)cc1)c1cccs1 | 10.5 µM (inactive) | –
CC(C)n1c(SCC(=O)Nc2nc3c(s2)CCCC3)nc2c1c(=O)n(C)c(=O)n2C | 13.9 µM (inactive) | –
Oc1ccc(C=NNc2ccccn2)c(O)c1 | > 35.9 µM (inactive) | –
COc1ccc2c(c1)-c1c(ssc1=S)C(C)(C)N2C(=O)CSC1=NCCS1 | 20.6 µM (inactive) | –
COc1cc2c3c([nH]c2cc1F)C(=O)NCC3 | 24.8 µM (inactive) | –
CN(Cc1cnc2nc(N)nc(N)c2n1)c1ccc(C(=O)NC(CCC(=O)O)C(=O)O)cc1 (stereo not given) | > 35.9 µM (inactive) | –
COc1ccc(C(O)(C(C)C)C(CN2CCOCC2)c2ccc(Cl)cc2)cc1 (stereo not given) | 20 µM (inactive) | –
O=[N+]([O-])c1ccc(N(CCO)CCO)c2c1no[n+]2[O-] | – | 5.10
Cn1nc(C(F)(F)F)c(C#N)c1N1CCN(c2ccccc2)CC1 | – | 5.20
O=[N+]([O-])c1cccc2c1ccc1ncccc12 | 12.8 µM (inactive) | –
COc1cc(C(=O)NC(=S)NNC(=O)c2cnccn2)cc(OC)c1OC | 11.9 µM (inactive) | –
CCCS(=O)(=O)c1c(S(=O)(=O)CCC)c2c(C)cccn2c1C(=O)N/N=C/c1cc(O)cc(O)c1 | – | 5.30
Cc1ccc(/C=C2/SC(=S)N(CCCC(=O)Nc3ccc(O)cc3)C2=O)cc1 | > 12 µM (inactive) | –
CCCCN(CCCC)c1ncnc2nc[nH]c12 | – | 5.16
COc1cccc(/C=N/NC(=O)C(=O)Nc2ccccc2OC(F)(F)C(F)F)c1O | 10.7 µM (inactive) | –
O=C(CCl)N(c1ccccc1)C1CCS(=O)(=O)C1 (stereo not given) | 16.2 µM (inactive) | –
COc1ccc(-c2ncncc2-c2ccccc2)c(O)c1 | 19.4 µM (inactive) | –
CC(C)Cn1c(N)c(C(=O)COC(=O)c2cc3ccccc3cc2O)c(=O)n(C)c1=O | 29.3 µM (inactive) | –
O=C1c2cccc(OCc3ccc(F)cc3)c2CCN1Cc1ccccc1 | 10.7 µM (inactive) | –
c1cnc2ccc(-n3ccnc3)cc2c1 | – | 5.02

From PubChem BioAssay AID602236 (The Scripps Research Institute Molecular Screening Center, 2012)
